The record followed here is patent US3985779A, “M-phenoxyphenyl propionic acid derivatives and preparation thereof” (Eisai Co., Ltd., priority 1973, dated 1976).

The LD50 is the dose expected to kill half of the subjects tested. Low readings indicate greater toxicity, high ones lower toxicity.

In data set [1] the test system is stomachs of the rats. It counts as in vivo. The conditions noted are these: 100 mg/kg oral; score 0 (nothing unusual) to 10 (considerable irritability with bleeding). An excerpt:
Observation of gastric irritability
Gastric irritability due to oral administration of the compounds as edema inhibitory agent was studied by macroscopical observation of the dissected stomachs of the rats which had been employed for determination of the edema inhibitions mentioned in the preceding paragraphs. The degrees of the irritability observed were scored in the 0 to 10 ratings depending upon the extent of errosions and bleedings of the stomachs, wherein the rating of 0(zero) means "nothing unusual", the rating of 10 means a state of considerable gastric irritability with bleeding and the remainders mean the intermediate degree of gastric irritability.

In data set [2] the test system is yeast-induced pyrexia. Briefly: Antipyretic activity to the yeast-treated rats (Experiment I). Format: in vivo, rats (Wistar strain male). As for the experimental part:
To Wistar strain male rats having about 300 - 350 grs. body weight, an aqueous suspension of yeast was subcutaneously injected to induce pyrexia.
At the lapse of 4 hours since the dose of the yeast suspension, the compounds under test given in hereinaftermentioned Table 10 in a form of suspension in a 5% gum arabic aqueous solution are orally administered. The rectal temperatures of the rats were measured periodically by means of a thermister-type thermometer sold by Japan Koden K.K. As control, said 5% gum arabic aqueous solution alone was administered.

For data set [3], the system named is writhing syndrome. In words: Analgesic activity: antagonism to acetic acid writhing syndrome in mice (Experiment J). It counts as in vivo, mice (dd strain male). Here is the method: Analgesic activity of the compound of the present invention in comparison with the known compounds.
Analgesic activity of the compound was tested as the measure of antagonism to writhing syndrome appeared when 0.1 ml/10g of 0.7% acetic acid was intraperitoneally injected to the dd strain male mice having 17 - 20 grs. body weight which had been abstinence from food for 18 hours.
The compounds under test were orally administered in a form of suspension in a 5% aqueous solution of gum arabic. After one hour from the administration, the onset times required for the writhing syndrome were scored.
In another Experiment in the combined use of the compounds under test and Codeine phosphate, 10 - 20 mg/kg of Codeine phosphate were orally administered immediatly after the oral administration of the compounds under test.

The nature of data set [4]: in vivo. The conditions noted are these: mouse, po. As for the experimental part:
Comparison of toxicity of the phenyl propionic acid derivatives of the present invention and that of the other known anti-inflammatory agents was carried out in mice.

For `CC(=O)Oc1ccccc1C(=O)O` [Aspirin], the “Degree of gastric irritability” value in data set [1] is on record as 10. Further, in data set [2] (320 mg/kg p.o.), the “body temperature relative to normal (in words)” value was “body temperature injuriously depressed below the normal body temperature”. The “Change in rectal temperature, mean ± S.E.” value in data set [2] (1 hr, 80 mg/kg p.o.) was -0.18 ± 0.10; in data set [2] (1 hr, 160 mg/kg p.o.) it was -0.48 ± 0.23; in data set [2] (1 hr, 320 mg/kg p.o.) it was -0.75 ± 0.10; in data set [2] (3 hrs, 80 mg/kg p.o.) it was -0.25 ± 0.18; in data set [2] (3 hrs, 160 mg/kg p.o.), -1.05 ± 0.18; in data set [2] (3 hrs, 320 mg/kg p.o.), -1.68 ± 0.28. Moreover, the “Change in rectal temperature, mean ± S.E.” value is on record as -0.20 ± 0.12 in data set [2] (5 hrs, 80 mg/kg p.o.); -0.95 ± 0.18 in data set [2] (5 hrs, 160 mg/kg p.o.); -1.30 ± 0.29 in data set [2] (5 hrs, 320 mg/kg p.o.). The “Onset time of writhing syndrome, mean ± S.E.” value in data set [3] (10 mg/kg p.o. combined with Codeine Phosphate 10 mg/kg) worked out at 5.4 ± 0.4 min; in data set [3] (10 mg/kg p.o. combined with Codeine Phosphate 20 mg/kg), 9.6 ± 1.8 min; in data set [3] (160 mg/kg p.o. combined with Codeine Phosphate 10 mg/kg) it was 6.2 ± 0.6 min; in data set [3] (160 mg/kg p.o. combined with Codeine Phosphate 20 mg/kg), 11.1 ± 1.6 min; in data set [3] (test compound alone, 10 mg/kg p.o.), 5.2 ± 1.4 min; in data set [3] (test compound alone, 160 mg/kg p.o.), 5.9 ± 0.8 min. Further, in data set [3] (Mus musculus, 1 h, single oral administration, read-out: dose with significant antagonism / retardation of writhing syndrome), the minimal effective dose was found to be 160 mg/kg. Also, the LD50 in data set [4] was 1600 mg/kg.
